The text below walks through data of patent US8557763B2, “Synthetic peptides that enhance tight junction permeability” (Alba Therapeutics Corporation, priority 2007, dated 2013).

Test [1] has as its system CaCo2 monolayers. As to the kind of experiment: Trans Epithelial Electric Resistance (TEER) across CaCo2 monolayers. To be noted: CaCo2 monolayers. In kind it is cell-based. Details: key to Reduced TEER: + indicates an enhancement of the permeability of the tight junctions were observed; − indicates no enhancement of permeability was observed. The source says:
(§1) Agonists of tight junctions can be identified by their ability to enhance the flux of compounds (e.g. ions, Lucifer Yellow) through a cell monolayer that comprises tight junctions; or by their ability to reduce TEER across a cell monolayer that comprises tight junctions. Treatment of CaCo2 monolayers with peptide FCIGRL (SEQ ID NO: 1) led to a 51-fold enhancement of Lucifer Yellow permeability through CaCo2 monolayers compared to vehicle alone.
Treatment of CaCo2 monolayers with peptide FCIGRL led to a 16-fold decrease in TEER across CaCo2 monolayers compared to vehicle alone.
(§2) Tight junction agonists can be identified and tested using the following method:
(§3) Determination of TEER and Lucifer Yellow Flux
(§4) Prepare Modified Hank's Balanced Salt Solution (MHBSS) by obtaining 1 L bottle of HBSS removing 10 ml of HBSS and replacing it with 10 ml HEPES buffer pH 7.0. Adjust pH to 7.4±0.1 using concentrated NaOH (10N).
(§5) Remove CaCo-2 cells from incubator, grown on 12-well, 3.0 μM, polycarbonate Transwell® filters (Corning) and record passage#, date cells seeded and age in days.
(§6) Aspirate cell culture medium from both the apical (AP) and basolateral (BL) compartments, replacing with 0.5 ml and 1.5 ml of MHBSS, respectively. Incubate cells at 37° C. for 30 minutes.
Using the MilliCell®-ERS instrument (Millipore), measure and record the transepithelial electrical resistance (TEER) across each filter and record.
(§7) Aspirate solution from the apical compartment of each filter (n=3 per condition) and replace with 0.5 ml of control and test solutions containing Lucifer Yellow and test compound if appropriate.
(§8) Place all plates into incubator set at 37° C. (±0.2), 50 RPM (±5) for a total of 180 minutes.
At t=30, 60, 120 and 180 minutes, measure and record the transepithelial electrical resistance (TEER) across each filter using the MilliCell-ERS instrument.
(§9) Cells: CaCo-2 cells passage 40-60 grown on Transwell® plates for 21-28 days
(§10) Culture Medium: DMEM supplemented with 10% fetal bovine serum, 1% NEAA, 1% Penn/Strep
(§11) Buffers: Hank's Balanced Salt Solution (HBSS) without calcium and magnesium
(§12) Flasks: 100×20 mm Tissue culture dish Falcon.
(§13) Plates: 12 well polycarbonate Transwell® filters; 0.3 uM pore size

Test [2] concerns CaCo2 monolayers. The test is described as follows: Lucifer Yellow (LY) permeability assay through CaCo2 monolayers. In kind it is cell-based. Also noted: key to Enhanced LY permeability: + indicates an enhancement of the permeability of the tight junctions were observed; − indicates no enhancement of permeability was observed. To be noted: CaCo2 monolayers, Lucifer Yellow flux.
Source text: as §1, §2, §3, §4, §5, §6, §7, §8
At t=60, 120 and 180 minutes remove […] from each basolateral compartment and place it in a 96-well plate for Lucifer Yellow analysis, replace with 100 μl of MHBSS.
Make a Lucifer Yellow standard curve with the following dilutions (7500 μM, 3750 μM, 750 μM, 375 μM, 37.5 μM, 7.5 μM, 3.75 μM, 0.75 μM) and pipette 100 μL of each into a 96-well plate except for the first three standards mentioned above which require a 1:10 dilutions prior to transferring to the 96-well plate.
Harvest the remaining start solutions and what is left in each apical compartment into 1.5 ml vials. Freeze at −20° C. for future analysis.
Analyze each 96-well plate in a Tecan Spectra Fluor Plus using Magellan at 485 and 535 nm.
as §9, §10, §11, §12, §13
On the technique in general: Passage across Caco-2 layers is used to estimate intestinal permeability.

Where no end group is shown, it is not given here. [ ]: non-standard residue; d: D form. AllylGly = C=CC[C@H](N)C(=O)O

With “19 (P[AllylGly]IGRL-NH2; N-terminus assumed; SMILES C=CC[C@H](NC(=O)[C@@H]1CCCN1)C(=O)N[C@H](C(=O)NCC(=O)N[C@@H](CCCNC(=N)N)C(=O)N[C@@H](CC(C)C)C(N)=O)[C@@H](C)CC) [compound 19]”, the “Reduced TEER” value in the test on CaCo2 monolayers [1] is “−”. Besides, the “Enhanced LY permeability” value in the test on CaCo2 monolayers [2] is reported as “−”.
Take “20 (R[AllylGly]IGRL-NH2; N-terminus assumed; SMILES C=CC[C@H](NC(=O)[C@@H](N)CCCNC(=N)N)C(=O)N[C@H](C(=O)NCC(=O)N[C@@H](CCCNC(=N)N)C(=O)N[C@@H](CC(C)C)C(N)=O)[C@@H](C)CC) [compound 20]”: the “Reduced TEER” value with CaCo2 monolayers [1] was “−”. In the test with CaCo2 monolayers [2], the “Enhanced LY permeability” value was “+”.
Consider “21 (I[AllylGly]IGRL-NH2; N-terminus assumed; SMILES C=CC[C@H](NC(=O)[C@@H](N)[C@@H](C)CC)C(=O)N[C@H](C(=O)NCC(=O)N[C@@H](CCCNC(=N)N)C(=O)N[C@@H](CC(C)C)C(N)=O)[C@@H](C)CC) [compound 21]”, for which, in the test with CaCo2 monolayers [1], the “Reduced TEER” value was “−”. The “Enhanced LY permeability” value with CaCo2 monolayers [2] is “−”.
With “22 (F[AllylGly]PGRL-NH2; N-terminus assumed; SMILES C=CC[C@H](NC(=O)[C@@H](N)Cc1ccccc1)C(=O)N1CCC[C@H]1C(=O)NCC(=O)N[C@@H](CCCNC(=N)N)C(=O)N[C@@H](CC(C)C)C(N)=O) [compound 22]”, in the test on CaCo2 monolayers [1], the “Reduced TEER” value was “−”. For the same substance, the “Enhanced LY permeability” value in the test with CaCo2 monolayers [2] was “−”.
On to “23 (F[AllylGly]FGRL-NH2; N-terminus assumed; SMILES C=CC[C@H](NC(=O)[C@@H](N)Cc1ccccc1)C(=O)N[C@@H](Cc1ccccc1)C(=O)NCC(=O)N[C@@H](CCCNC(=N)N)C(=O)N[C@@H](CC(C)C)C(N)=O) [compound 23]”, for which the “Reduced TEER” value with CaCo2 monolayers [1] is given as “+”. Also, the “Enhanced LY permeability” value in the test with CaCo2 monolayers [2] is on record as “+”.
Turning to “24 (F[AllylGly]TGRL-NH2; N-terminus assumed; SMILES C=CC[C@H](NC(=O)[C@@H](N)Cc1ccccc1)C(=O)N[C@H](C(=O)NCC(=O)N[C@@H](CCCNC(=N)N)C(=O)N[C@@H](CC(C)C)C(N)=O)[C@@H](C)O) [compound 24]”, the “Reduced TEER” value in the test on CaCo2 monolayers [1] was “−”. Besides, in the test with CaCo2 monolayers [2], the “Enhanced LY permeability” value is recorded as “−”.
Take “25 (F[AllylGly]LGRL-NH2; N-terminus assumed; SMILES C=CC[C@H](NC(=O)[C@@H](N)Cc1ccccc1)C(=O)N[C@@H](CC(C)C)C(=O)NCC(=O)N[C@@H](CCCNC(=N)N)C(=O)N[C@@H](CC(C)C)C(N)=O) [compound 25]”: the “Reduced TEER” value in the test with CaCo2 monolayers [1] is “+”. Also, the “Enhanced LY permeability” value with CaCo2 monolayers [2] was “+”.
In the case of “26 (F[AllylGly]SGRL-NH2; N-terminus assumed; SMILES C=CC[C@H](NC(=O)[C@@H](N)Cc1ccccc1)C(=O)N[C@@H](CO)C(=O)NCC(=O)N[C@@H](CCCNC(=N)N)C(=O)N[C@@H](CC(C)C)C(N)=O) [compound 26]”, in the test with CaCo2 monolayers [1], the “Reduced TEER” value was “+”. In the test with CaCo2 monolayers [2], the “Enhanced LY permeability” value was “+”.
For “27 (F[AllylGly]FGRL-NH2; N-terminus assumed; SMILES C=CC[C@H](NC(=O)[C@@H](N)Cc1ccccc1)C(=O)N[C@@H](Cc1ccccc1)C(=O)NCC(=O)N[C@@H](CCCNC(=N)N)C(=O)N[C@@H](CC(C)C)C(N)=O) [compound 27]”, the “Reduced TEER” value with CaCo2 monolayers [1] is given as “+”. Moreover, the “Enhanced LY permeability” value in the test on CaCo2 monolayers [2] is reported as “+”.
As to “28 (F[AllylGly]VGRL-NH2; N-terminus assumed; SMILES C=CC[C@H](NC(=O)[C@@H](N)Cc1ccccc1)C(=O)N[C@H](C(=O)NCC(=O)N[C@@H](CCCNC(=N)N)C(=O)N[C@@H](CC(C)C)C(N)=O)C(C)C) [compound 28]”, in the test with CaCo2 monolayers [1], the “Reduced TEER” value was “−”. Besides, the “Enhanced LY permeability” value with CaCo2 monolayers [2] is on record as “−”.
As for “29 (F[AllylGly]GGRL-NH2; N-terminus assumed; SMILES C=CC[C@H](NC(=O)[C@@H](N)Cc1ccccc1)C(=O)NCC(=O)NCC(=O)N[C@@H](CCCNC(=N)N)C(=O)N[C@@H](CC(C)C)C(N)=O) [compound 29]”, the “Reduced TEER” value with CaCo2 monolayers [1] is given as “+”. Also, the “Enhanced LY permeability” value in the test with CaCo2 monolayers [2] is given as “+”.
